Reference: patent US12044651B2, “Sensor device and methods” (SCENTIAN BIO LIMITED, priority 2016, dated 2024)

Biological target: T1, Or22a (Drosophila melanogaster, UniProt P81909)
T1 sequence (P81909 1-397): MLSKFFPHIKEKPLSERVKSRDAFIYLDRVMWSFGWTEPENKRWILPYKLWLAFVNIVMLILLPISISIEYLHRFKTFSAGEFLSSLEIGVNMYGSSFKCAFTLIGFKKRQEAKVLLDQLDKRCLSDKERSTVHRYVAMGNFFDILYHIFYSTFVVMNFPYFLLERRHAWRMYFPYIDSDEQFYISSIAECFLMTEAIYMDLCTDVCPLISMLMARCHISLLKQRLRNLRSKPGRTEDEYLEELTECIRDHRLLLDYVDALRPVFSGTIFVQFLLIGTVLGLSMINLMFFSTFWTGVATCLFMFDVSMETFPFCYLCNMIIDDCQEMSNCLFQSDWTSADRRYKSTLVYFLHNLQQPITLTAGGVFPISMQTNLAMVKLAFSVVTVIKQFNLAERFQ
Assay: EIS sensor, Or22a liposomes on gold electrode (Example 1)
Type: binding
Conditions: Or22a liposomes, EIS
Protocol: Liposomes were prepared using a phospholipid solution produced by evaporating solutions containing: phosphatidylethanolamine (PE), phosphatidylserine (PS), phosphatidylcholine (PC), and cholesterol (CH) at a molar ratio of 5:3:3:1 in a small glass tube under a stream of N2 gas, then desiccating under vacuum for 1 h. […] To promote the formation of liposomes, 10 freeze/thaw steps were performed by transferring the tube from liquid nitrogen to a 40° C. water bath. Liposomes were then sized by passing the lipid solution 11 times through a 100-nm polycarbonate membrane using an Avestin LiposoFAST extruder unit (Avestin, Germany). Glycerol was added at 10% of the final volume and aliquots at 10 mg/mL were snap frozen in liquid nitrogen and stored at -80° C. Prior to their use, liposomes were defrosted on ice and then destabilized by incubating with 0.2% CHAPS for 15 min at room temperature. Then 200 μg of purified odorant receptor^14 was added to 1 mg of liposomes and rotated at 10 rpm for 1 h at room temperature. […] The Bio-Beads were removed after each incubation period. The OR integrated liposomes were pelleted by centrifugation at 100,000 g for 1 h, and were resuspended in 500 μL of rehydration buffer. Integration of OrXs into liposomes was assessed by density gradient ultracentrifugation (DGU) using Accudenz (Accurate Chemical & Scientific Corporation, USA). […] The sample was then centrifuged at 100,000 g for 4 h at 4° C. Liposomes will float to the top of the gradient after Accudenz DGU due to their low density. 1.3 Electrode Cleaning Gold disk (2 mm) electrodes were cleaned with polishing with Alumina paste for 2 minutes, ultra-sonicated in pure ethanol and then Milli-Q water for 5 minutes each. […] Charge transfer resistance (Rct) of electrodes were calculated by fitting obtained data to a Randles' equivalent circuit [Rs+CPE/(Rct+W)] comprising of a solution resistance (Rs) in series with a constant phase element (CPE) and in parallel with charge transfer resistance (Rct) and Warburg diffusion element. […]

With `CCCCCC(=O)OC` [methyl hexanoate] the EC50 was roughly 0.01 µM and the “Sensitivity limit (lowest detectable concentration)” value (signal/noise >3) was 280 pM.
